Source: US12102608B2, “Composition of acylethanolamides from olive oil fatty acids” (EPITECH GROUP S.P.A., priority 2021, dated 2024)

What was measured:
Assay type in all cases: in vivo, rat
[1] = tested on: paw edema of animals injected with CAR; assay: Carrageenan-induced paw edema, plethysmometer; conditions: per os 30 min before CAR in 2% CMC; PEA 2 mg/kg, OEA 6 mg/kg, complex/silica 20 mg/kg; 1 h to 6 h after CAR; FIG. 1
Method: The study was conducted on male Sprague-Dawley rats (200-235 g; Harlan, Nossan, Italy) fed ad libitum and housed in cages with a controlled sleep/wake cycle. Before the start of the experimentation, the animals were subjected to an acclimatization period of 1 week considering all the experimental procedures and protocols, compliant with the principles of the care of laboratory animals approved by the Italian Ministry of Health and respecting the guidelines of the European Economic Community. The animals were subjected to a single injection of 100 μl of saline solution containing 1% Carrageenan (CAR) in one of the two hind legs. Paw edema was measured with a plethysmometer (Ugo Basile, Comerio, Varese, Italy) (Salvemini D et al. Nitric oxide: A key mediator in the early and late phase of carrageenan-induced rat paw inflammation. Br. J. Pharmacol. 1996; 118: 829-838) before the CAR injection and after the inoculation thereof every hour for 6 h. The hyperalgesic responses to heat were assessed using the plantar test with a cut-off latency of 20 sec to avoid tissue damage. […] The suspension latency period of the injected paw was determined by an electronic circuit and the results were expressed in seconds. Edema was expressed as increased paw volume (mL) after the CAR injection with respect to the pre-injection value for all the animals. […]

[2] = tested on: tissue damage of the paw of animals subjected to CAR injection; assay: Histology of paw tissue (Hematoxylin/Eosin), tissue damage score; conditions: per os 30 min before CAR; PEA 2 mg/kg, OEA 6 mg/kg, complex/silica 20 mg/kg; tissue taken 6 h after CAR; FIG. 3
Method: (§1) The study was conducted on male Sprague-Dawley rats (200-235 g; Harlan, Nossan, Italy) fed ad libitum and housed in cages with a controlled sleep/wake cycle. Before the start of the experimentation, the animals were subjected to an acclimatization period of 1 week considering all the experimental procedures and protocols, compliant with the principles of the care of laboratory animals approved by the Italian Ministry of Health and respecting the guidelines of the European Economic Community. […]

[3] = tested on: mast cells in the paw tissue; assay: Toluidine Blue staining of mast cells in paw tissue; conditions: per os 30 min before CAR; PEA 2 mg/kg, OEA 6 mg/kg, complex/silica 20 mg/kg; 6 h after CAR; PEA and OEA compared with sham; FIG. 4
Method: as §1

[4] = tested on: CAR-induced thermal hyperalgesia; assay: Plantar test, thermal hyperalgesia after CAR injection; conditions: per os 30 min before CAR in 2% CMC; PEA 2 mg/kg, OEA 6 mg/kg, complex/silica 20 mg/kg; 1 h to 6 h after CAR, vs. vehicle; FIG. 2
Method: The study was conducted on male Sprague-Dawley rats (200-235 g; Harlan, Nossan, Italy) fed ad libitum and housed in cages with a controlled sleep/wake cycle. Before the start of the experimentation, the animals were subjected to an acclimatization period of 1 week considering all the experimental procedures and protocols, compliant with the principles of the care of laboratory animals approved by the Italian Ministry of Health and respecting the guidelines of the European Economic Community. The animals were subjected to a single injection of 100 μl of saline solution containing 1% Carrageenan (CAR) in one of the two hind legs. Paw edema was measured with a plethysmometer (Ugo Basile, Comerio, Varese, Italy) (Salvemini D et al. Nitric oxide: A key mediator in the early and late phase of carrageenan-induced rat paw inflammation. Br. J. Pharmacol. 1996; 118: 829-838) before the CAR injection and after the inoculation thereof every hour for 6 h. The hyperalgesic responses to heat were assessed using the plantar test with a cut-off latency of 20 sec to avoid tissue damage. The rats were individually housed in plexiglass compartments to acclimatize them before subjecting them to thermal stimulation. The suspension latency period of the injected paw was determined by an electronic circuit and the results were expressed in seconds. […]

Row | SMILES | edema (increased paw volume) caused by CAR [1] | paw tissue damage (E/E histological score) [2] | number of mast cells / mast cell infiltrate in paw tissue [3] | CAR-induced thermal hyperalgesia (plantar test latency) [4]
1 | CCCCCCCC/C=C\CCCCCCCC(=O)NCCO [OEA, oleoylethanolamide] | No significant reduction in the edema | not capable of protecting the paw tissues | significant increase in the number of mast cells | No analgesic effect
2 | CCCCCCCCCCCCCCCC(=O)NCCO [PEA, palmitoylethanolamide] | No significant reduction in the edema | not capable of protecting the paw tissues | significant increase in the number of mast cells | No analgesic effect
